Columns and labels:
Type in all cases: biochemical
Fms = target: T1, Fms (Homo sapiens, UniProt P07333); test: AlphaScreen kinase assay, Fms; conditions: read-out: IC50, activity toward kinase Fms
T1 construct: purchased Upstate Biotechnology

EphB2 = target: T2, EphB2 (Homo sapiens, UniProt P29323); test: Z'-Lyte FRET kinase assay (Invitrogen), EphB2; conditions: read-out: IC50, activity toward kinase EphB2
T2 construct: purchased Invitrogen (assay run by Invitrogen)
T2 sequence (P29323 19-1055): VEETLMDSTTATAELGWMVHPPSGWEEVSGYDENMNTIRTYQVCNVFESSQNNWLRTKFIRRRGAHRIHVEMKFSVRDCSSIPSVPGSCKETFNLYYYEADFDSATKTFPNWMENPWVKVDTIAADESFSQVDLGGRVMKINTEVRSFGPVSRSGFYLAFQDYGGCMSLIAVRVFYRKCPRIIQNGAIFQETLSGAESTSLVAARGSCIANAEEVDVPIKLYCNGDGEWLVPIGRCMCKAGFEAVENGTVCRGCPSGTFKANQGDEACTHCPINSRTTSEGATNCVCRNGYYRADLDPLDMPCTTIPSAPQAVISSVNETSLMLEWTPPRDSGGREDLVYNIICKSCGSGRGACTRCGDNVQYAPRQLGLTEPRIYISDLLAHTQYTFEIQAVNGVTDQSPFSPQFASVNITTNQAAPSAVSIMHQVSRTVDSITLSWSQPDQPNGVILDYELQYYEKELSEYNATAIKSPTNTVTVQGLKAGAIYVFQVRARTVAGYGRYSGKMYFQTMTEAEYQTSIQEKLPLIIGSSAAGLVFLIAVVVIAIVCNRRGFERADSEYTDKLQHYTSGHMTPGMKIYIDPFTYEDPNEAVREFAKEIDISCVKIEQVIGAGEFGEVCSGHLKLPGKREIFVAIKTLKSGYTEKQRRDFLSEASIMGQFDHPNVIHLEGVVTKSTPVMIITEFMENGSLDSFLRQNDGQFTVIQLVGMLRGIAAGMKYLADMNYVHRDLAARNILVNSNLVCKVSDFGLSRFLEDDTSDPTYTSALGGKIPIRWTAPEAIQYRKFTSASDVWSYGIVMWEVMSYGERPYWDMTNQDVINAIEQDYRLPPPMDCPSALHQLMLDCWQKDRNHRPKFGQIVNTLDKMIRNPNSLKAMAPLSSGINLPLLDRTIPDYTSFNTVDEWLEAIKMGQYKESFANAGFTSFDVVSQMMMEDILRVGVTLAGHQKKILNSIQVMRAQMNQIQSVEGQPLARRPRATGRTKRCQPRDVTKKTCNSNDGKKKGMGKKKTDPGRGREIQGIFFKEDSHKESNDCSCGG
Summary of the method: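 Z′-Lyte FRET assay: kinase phosphorylates 2 μM peptide substrate at 10 μM ATP in 50 mM HEPES pH 7.5, 50 mM MgCl2, 5 mM EGTA, 0.05% BRIJ-35, 1% DMSO, 1 h at room temperature. Protease development 1 h; coumarin/fluorescein emission ratio gives phosphorylation extent over compound concentration curves.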

Btk = target: T3, Btk (Homo sapiens, UniProt Q06187); test: Z'-Lyte FRET kinase assay (Invitrogen), Btk; conditions: read-out: IC50, activity toward kinase Btk
T3 construct: purchased Invitrogen (assay run by Invitrogen)
T3 sequence (Q06187 whole entry): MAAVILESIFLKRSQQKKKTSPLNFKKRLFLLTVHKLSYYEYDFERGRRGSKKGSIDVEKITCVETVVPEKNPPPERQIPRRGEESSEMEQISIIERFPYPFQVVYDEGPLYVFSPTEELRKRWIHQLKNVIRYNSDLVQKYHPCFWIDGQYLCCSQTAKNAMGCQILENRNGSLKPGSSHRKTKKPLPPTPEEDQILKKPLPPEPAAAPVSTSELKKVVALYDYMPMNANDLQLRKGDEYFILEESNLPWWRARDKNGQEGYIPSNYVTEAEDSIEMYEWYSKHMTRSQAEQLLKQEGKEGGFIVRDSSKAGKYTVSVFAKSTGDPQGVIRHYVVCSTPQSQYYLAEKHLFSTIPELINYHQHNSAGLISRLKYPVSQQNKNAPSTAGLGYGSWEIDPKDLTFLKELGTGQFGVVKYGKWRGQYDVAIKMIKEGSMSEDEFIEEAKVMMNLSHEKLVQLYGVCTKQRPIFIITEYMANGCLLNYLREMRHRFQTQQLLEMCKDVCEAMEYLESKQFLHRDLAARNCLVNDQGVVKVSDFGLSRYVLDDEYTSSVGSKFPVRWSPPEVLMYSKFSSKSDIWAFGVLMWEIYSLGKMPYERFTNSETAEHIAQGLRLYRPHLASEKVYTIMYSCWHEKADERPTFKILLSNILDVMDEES

FGFR1 = target: T4, FGFR1 (Homo sapiens, UniProt P11362, C488A/C584S); test: AlphaScreen kinase assay, FGFR1; conditions: read-out: IC50, activity toward kinase FGFR
T4 construct: P1351.pET N6 BI-PTP FGFR A458-E765-X C488A, C584S; made in house; host or cells: E. coli (PTP1B co-expressed)
T4 sequence (P11362 458-765 C488A/C584S): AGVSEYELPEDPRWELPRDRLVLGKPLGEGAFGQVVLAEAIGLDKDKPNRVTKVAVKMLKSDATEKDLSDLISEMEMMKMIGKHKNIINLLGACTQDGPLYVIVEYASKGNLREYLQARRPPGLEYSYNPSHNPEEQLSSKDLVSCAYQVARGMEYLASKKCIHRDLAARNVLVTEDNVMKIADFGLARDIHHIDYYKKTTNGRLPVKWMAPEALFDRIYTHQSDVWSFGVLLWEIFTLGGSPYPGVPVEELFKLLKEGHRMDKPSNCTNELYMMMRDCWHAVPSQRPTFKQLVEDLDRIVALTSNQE

B-Raf = target: T5, B-Raf (Homo sapiens, UniProt P15056); test: AlphaScreen kinase assay, B-Raf; conditions: read-out: IC50, activity toward kinase B-Raf
T5 construct: purchased Upstate Biotechnology
T5 sequence (P15056 whole entry): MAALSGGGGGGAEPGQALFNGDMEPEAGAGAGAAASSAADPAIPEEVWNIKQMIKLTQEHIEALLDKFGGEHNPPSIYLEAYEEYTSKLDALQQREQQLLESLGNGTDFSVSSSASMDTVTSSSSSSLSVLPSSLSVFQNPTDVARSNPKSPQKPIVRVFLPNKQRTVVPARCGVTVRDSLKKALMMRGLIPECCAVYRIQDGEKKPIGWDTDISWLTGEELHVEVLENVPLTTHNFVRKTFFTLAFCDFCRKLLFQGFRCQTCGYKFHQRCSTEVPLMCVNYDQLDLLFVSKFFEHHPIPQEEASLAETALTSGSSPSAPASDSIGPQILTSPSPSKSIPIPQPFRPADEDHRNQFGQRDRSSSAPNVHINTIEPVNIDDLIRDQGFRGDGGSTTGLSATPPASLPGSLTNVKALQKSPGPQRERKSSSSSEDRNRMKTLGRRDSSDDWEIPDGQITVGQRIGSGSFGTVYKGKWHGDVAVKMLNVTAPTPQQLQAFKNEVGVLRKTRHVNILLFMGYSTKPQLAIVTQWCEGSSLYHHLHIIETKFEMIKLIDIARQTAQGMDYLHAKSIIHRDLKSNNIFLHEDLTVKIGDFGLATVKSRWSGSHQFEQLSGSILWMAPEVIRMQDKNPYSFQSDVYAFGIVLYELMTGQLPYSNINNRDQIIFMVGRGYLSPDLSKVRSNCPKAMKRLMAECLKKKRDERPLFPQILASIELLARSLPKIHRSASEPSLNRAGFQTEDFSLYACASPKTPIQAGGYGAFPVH

Ret = target: T6, Ret (Homo sapiens, UniProt P07949); test: AlphaScreen kinase assay, Ret; conditions: read-out: IC50, activity toward kinase Ret
T6 construct: P1378.pET-SF BI-PTP RET H661-R1012 HIS; made in house
T6 sequence (P07949 with tags, fused parts or gaps): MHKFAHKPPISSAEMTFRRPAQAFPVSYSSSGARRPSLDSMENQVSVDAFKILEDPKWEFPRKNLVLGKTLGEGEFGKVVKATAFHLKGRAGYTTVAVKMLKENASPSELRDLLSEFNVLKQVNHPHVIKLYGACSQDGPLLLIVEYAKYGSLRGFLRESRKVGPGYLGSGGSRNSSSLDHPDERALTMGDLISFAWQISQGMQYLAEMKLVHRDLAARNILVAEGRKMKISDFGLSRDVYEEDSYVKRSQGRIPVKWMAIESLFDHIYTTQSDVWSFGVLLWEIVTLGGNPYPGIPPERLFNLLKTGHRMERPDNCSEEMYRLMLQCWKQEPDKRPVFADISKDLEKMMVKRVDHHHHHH

Measured: IC50

T1 sequence (P07333 20-972): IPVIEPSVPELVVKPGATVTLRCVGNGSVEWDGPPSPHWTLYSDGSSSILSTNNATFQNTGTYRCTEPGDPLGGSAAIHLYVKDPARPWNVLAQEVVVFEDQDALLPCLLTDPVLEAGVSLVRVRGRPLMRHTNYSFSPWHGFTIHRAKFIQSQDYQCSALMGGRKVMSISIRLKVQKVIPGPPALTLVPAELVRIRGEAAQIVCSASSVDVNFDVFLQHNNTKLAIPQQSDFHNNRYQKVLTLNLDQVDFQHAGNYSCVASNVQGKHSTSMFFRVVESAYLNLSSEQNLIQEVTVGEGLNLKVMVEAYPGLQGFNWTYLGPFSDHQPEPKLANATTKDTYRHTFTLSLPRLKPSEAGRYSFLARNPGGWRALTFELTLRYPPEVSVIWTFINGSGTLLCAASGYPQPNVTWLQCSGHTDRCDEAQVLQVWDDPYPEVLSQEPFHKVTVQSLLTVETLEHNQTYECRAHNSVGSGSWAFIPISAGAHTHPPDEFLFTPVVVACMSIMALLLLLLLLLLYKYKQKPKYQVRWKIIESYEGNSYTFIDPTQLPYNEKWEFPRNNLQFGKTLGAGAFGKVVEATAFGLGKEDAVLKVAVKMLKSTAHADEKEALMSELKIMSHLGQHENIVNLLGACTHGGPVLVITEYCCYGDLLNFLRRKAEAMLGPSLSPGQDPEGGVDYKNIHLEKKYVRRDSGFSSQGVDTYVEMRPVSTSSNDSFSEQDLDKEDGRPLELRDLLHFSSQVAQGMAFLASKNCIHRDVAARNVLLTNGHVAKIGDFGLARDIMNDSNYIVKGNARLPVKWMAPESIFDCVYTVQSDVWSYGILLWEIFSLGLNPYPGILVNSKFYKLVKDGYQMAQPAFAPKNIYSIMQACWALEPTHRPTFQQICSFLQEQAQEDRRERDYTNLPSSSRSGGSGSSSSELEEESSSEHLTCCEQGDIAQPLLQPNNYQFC

CCCS(=O)(=O)Nc1ccc(F)c(C(=O)c2c[nH]c3ncccc23)c1F [Compound P-0007, Propane-1-sulfonic acid [2,4-difluoro-3-(1H-pyrrolo[2,3-b]pyridine-3-carbonyl)-phenyl]-amide]
not listed: Ret
≤ 10 µM: all other assays above

CC(=O)Nc1cccc(-c2cnc3[nH]cc(C(=O)c4cc(O)ccc4F)c3c2)c1 [Compound P-0001]
not listed: Btk
≤ 10 µM: all other assays above

O=C(c1cccc(O)c1F)c1c[nH]c2ncc(Br)cc12 [Compound P-0067, (5-bromo-1H-pyrrolo[2,3-b]pyridin-3-yl)-(2-fluoro-3-hydroxy-phenyl)-methanone]
not listed: Ret
≤ 10 µM: all other assays above

COc1ccc(C(=O)c2c[nH]c3ncc(-c4cccc(/C=C/C(=O)O)c4)cc23)c(Cl)c1 [Compound P-0015]
≤ 10 µM: EphB2 | Ret | Btk | FGFR1

Oc1cccc(Cc2c[nH]c3ncc(-c4ccsc4)cc23)c1 [Compound P-0056]
≤ 10 µM: EphB2 | Ret | FGFR1 | B-Raf

O=C(c1cccc(O)c1)c1c[nH]c2ncccc12 [Compound P-0011]
≤ 10 µM: EphB2 | Ret | Btk | FGFR1

Cc1ccc(F)cc1C(=O)c1c[nH]c2nccc(-c3cccc(NS(C)(=O)=O)c3)c12 [Compound P-0124]
≤ 10 µM: EphB2 | Ret

Cc1ccccc1C(=O)c1c[nH]c2nccc(-c3ccc(C(N)=O)cc3)c12 [Compound P-0017]
≤ 10 µM: EphB2 | Ret | Btk | FGFR1

Cc1ccccc1C(=O)c1c[nH]c2nccc(-c3cccc(N)c3)c12 [Compound P-0044]
≤ 10 µM: EphB2 | Ret | Btk

Cc1c(O)cccc1C(=O)c1c[nH]c2ncc(-c3cccs3)cc12 [Compound P-0114, (3-Hydroxy-2-methyl-phenyl)-(5-thiophen-2-yl-1H-pyrrolo[2,3b]pyridin-3-yl)-methanone]
not listed: Btk
≤ 10 µM: all other assays above

Nc1cccc(-c2ccnc3[nH]cc(C(=O)c4ccccc4F)c23)c1 [Compound P-0022]
≤ 10 µM: EphB2 | Ret | Btk

Cc1ccccc1C(=O)c1c[nH]c2nccc(-c3cccc(NS(C)(=O)=O)c3)c12 [Compound P-0109]
≤ 10 µM: EphB2 | Ret | Btk

Nc1cccc(-c2cnc3[nH]cc(C(=O)c4cccc(O)c4)c3c2)c1 [Compound P-0003]
not listed: Btk
≤ 10 µM: all other assays above

O=C(c1ccc(O)cc1Cl)c1c[nH]c2ncccc12 [Compound P-0021]
not listed: Ret
≤ 10 µM: all other assays above

O=C(c1cc(O)ccc1F)c1c[nH]c2ncc(-c3cccs3)cc12 [Compound P-0032]
not listed: Btk
≤ 10 µM: all other assays above

Cc1ccc(F)cc1C(=O)c1c[nH]c2ncc(-c3cccc(N)c3)cc12 [Compound P-0040]
≤ 10 µM: EphB2 | Ret | Btk | FGFR1

CS(=O)(=O)Nc1cccc(-c2cnc3[nH]cc(C(=O)c4cccc(O)c4F)c3c2)c1 [Compound P-0038, N-{3-[3-(2-Fluoro-3-hydroxy-benzoyl)-1H-pyrrolo[2,3-b]pyridin-5-yl]-phenyl}-methanesulfonamide]
not listed: Btk
≤ 10 µM: all other assays above

Nc1ccnc2[nH]cc(C(=O)c3ccccc3)c12 [Compound P-0029]
≤ 10 µM: EphB2 | Ret | Btk | FGFR1

O=C(c1cccc(O)c1)c1c[nH]c2ncc(-c3cccnc3)cc12 [Compound P-0048]
≤ 10 µM: Fms | EphB2 | Ret | Btk

Cc1ccc(F)cc1C(=O)c1c[nH]c2ncc(-c3cccc(NS(C)(=O)=O)c3)cc12 [Compound P-0028]
≤ 10 µM: EphB2 | Ret | Btk | FGFR1

NC(=O)c1cccc(-c2cnc3[nH]cc(C(=O)c4cccc(O)c4F)c3c2)c1 [Compound P-0034, 3-[3-(2-Fluoro-3-hydroxy-benzoyl)-1H-pyrrolo[2,3-b]pyridin-5-yl]benzamide]
not listed: Btk
≤ 10 µM: all other assays above

NC(=O)c1ccc(-c2ccnc3[nH]cc(C(=O)c4cc(F)ccc4F)c23)cc1 [Compound P-0013]
≤ 10 µM: EphB2 | Ret | Btk | FGFR1

Oc1ccc(F)c(Cc2c[nH]c3ncc(-c4cccnc4)cc23)c1F [Compound P-0078, 2,4-difluoro-3-(5-pyridin-3-yl-1H-pyrrolo[2,3-b]pyridin-3-ylmethyl)-phenol]
not listed: Btk
≤ 10 µM: all other assays above

CC(=O)Nc1cccc(-c2ccnc3[nH]cc(C(=O)c4ccccc4F)c23)c1 [Compound P-0070]
≤ 10 µM: EphB2 | Ret | Btk

Oc1cc(O)cc(Cc2c[nH]c3ncc(-c4ccsc4)cc23)c1 [Compound P-0093]
not listed: Ret
≤ 10 µM: all other assays above

CC(=O)Nc1cccc(-c2cnc3[nH]cc(C(=O)c4cccc(O)c4F)c3c2)c1 [Compound P-0035, N-{3-[3-(2-Fluoro-3-hydroxy-benzoyl)-1H-pyrrolo[2,3-b]pyridin-5-yl]-phenyl}-acetamide]
not listed: Btk
≤ 10 µM: all other assays above

O=C(c1cc(O)ccc1F)c1c[nH]c2ncc(Br)cc12 [Compound P-0068, (5-Bromo-1H-pyrrolo[2,3-b]pyridin-3-yl)-(2-fluoro-5-hydroxy-phenyl)-methanone]
not listed: Ret
≤ 10 µM: all other assays above

O=C(c1cccc(O)c1F)c1c[nH]c2ncc(-c3ccccc3)cc12 [Compound P-0036, (2-fluoro-3-hydroxy-phenyl)-(5-phenyl-1H-pyrrolo[2,3-b]pyridin-3-yl)-methanone]
not listed: Btk
≤ 10 µM: all other assays above

NC(=O)c1ccc(-c2ccnc3[nH]cc(C(=O)c4ccccc4F)c23)cc1 [Compound P-0014]
≤ 10 µM: EphB2 | Ret | Btk

Source: US8415469B2, “Compounds and methods for kinase modulation, and indications therefor” (Plexxikon Inc., priority 2005, dated 2013)
